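Five concentrations, 48 hours, 96-well plates. The concentration for 50% growth inhibition is given as GI50.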 Active and inactive are the calls of the source. No stated cut-off is given here; in the data, active = GI50 up to about 1.1 µM and inactive = higher.
How the values were obtained:
Experiment in all cases: NCI tumour cell line growth inhibition, 48 h
M19-MEL = tested on: M19-MEL
XF498 = tested on: XF498
DMS-273 = tested on: DMS-273
KM-20L2 = tested on: KM-20L2
DLD-1 = tested on: DLD-1
SNB-78 = tested on: SNB-78
LXFL 529 = tested on: LXFL 529
HOP-18 = tested on: HOP-18
RXF 631 = tested on: RXF 631

SMILES | GI50 (M19-MEL) | GI50 (XF498) | GI50 (DMS-273) | GI50 (KM-20L2) | GI50 (DLD-1) | GI50 (SNB-78) | GI50 (LXFL 529) | GI50 (HOP-18) | GI50 (RXF 631)
C/C(=N\[N+](C)(C)C)C(c1ccccc1)C1(c2ccccc2)C(c2ccccc2)=C1c1ccccc1 (centres undefined) | > 100 µM (inactive) | 22.6 µM (inactive) | > 100 µM (inactive) | > 100 µM (inactive) | > 100 µM (inactive) | 50.5 µM (inactive) | – | – | –
CC1=NN(C(=O)c2ccc(Cl)cc2)C(=O)/C1=C/c1cccc(O)c1 | > 100 µM (inactive) | – | – | > 100 µM (inactive) | > 100 µM (inactive) | > 100 µM (inactive) | > 100 µM (inactive) | – | –
COc1cc(CC2C(=O)OCC2[C@@H](OC(C)=O)c2ccc3c(c2)OCO3)c(Br)c(OC)c1OC (some centres undefined) | 37.8 µM (inactive) | 62.8 µM (inactive) | 30.7 µM (inactive) | 44 µM (inactive) | > 100 µM (inactive) | – | 33.9 µM (inactive) | > 100 µM (inactive) | –
NNC(=O)C(=O)N/N=C1\CCCC1C(=O)CCC(=O)Nc1cccc(Cl)c1 (centres undefined) | > 100 µM (inactive) | > 100 µM (inactive) | – | > 100 µM (inactive) | > 100 µM (inactive) | > 100 µM (inactive) | > 100 µM (inactive) | > 100 µM (inactive) | > 100 µM (inactive)
CS(=O)(=O)ON1C(=O)c2ccc(N)cc2C1=O | > 59.8 µM (inactive) | > 79.1 µM (inactive) | > 100 µM (inactive) | > 100 µM (inactive) | > 65.8 µM (inactive) | > 100 µM (inactive) | > 78.5 µM (inactive) | > 100 µM (inactive) | > 100 µM (inactive)
COc1cc2nncc(Sc3cnnc4ccccc34)c2cc1OC | 30.7 µM (inactive) | – | 29.7 µM (inactive) | 25.6 µM (inactive) | 19.6 µM (inactive) | 6 µM (inactive) | 9.79 µM (inactive) | 16.5 µM (inactive) | 23 µM (inactive)
O=C(O)/C=C\C(=O)Nc1ccc(S(=O)(=O)c2ccc(NC(=O)/C=C\C(=O)O)cc2)cc1 | 45 µM (inactive) | > 100 µM (inactive) | – | > 100 µM (inactive) | > 100 µM (inactive) | > 100 µM (inactive) | > 100 µM (inactive) | – | –
C=C(OC1C(C)=C2C(C1OC(=O)CCCCCCC)C(C)(OC(C)=O)CC(OC(=O)CCC)C1(O)C2OC(=O)C1(C)O)/C(C)=C/C (centres undefined) | 0.0125 µM (active) | 0.348 µM (active) | 0.0125 µM (active) | 0.0314 µM (active) | 0.843 µM (active) | 0.015 µM (active) | – | 0.0125 µM (active) | –
Cc1ccc(S(=O)(=O)C(C#N)c2nc3ccccc3nc2N2CCOCC2)cc1 (centres undefined) | 26.7 µM (inactive) | 24.3 µM (inactive) | 17.8 µM (inactive) | 33.4 µM (inactive) | 27.3 µM (inactive) | 3.09 µM (inactive) | 27.9 µM (inactive) | – | –
COc1cc([C@@H]2c3cc4c(cc3[C@@H](NC(=O)c3ccccc3)C3COC(=O)[C@@H]32)OCO4)cc(OC)c1O (some centres undefined) | 4.82 µM (inactive) | – | 1.52 µM (inactive) | 2.71 µM (inactive) | 14.9 µM (inactive) | 41.2 µM (inactive) | 12.1 µM (inactive) | > 100 µM (inactive) | –
O=C(c1ccccc1)C(c1ccccc1)C1(O)C(=O)Nc2c(Cl)cc(Cl)cc21 (centres undefined) | – | > 100 µM (inactive) | 27.4 µM (inactive) | 36.8 µM (inactive) | 17.7 µM (inactive) | 24.7 µM (inactive) | 11.4 µM (inactive) | 14.9 µM (inactive) | 18.9 µM (inactive)
O=[N+]([O-])c1ccc(-c2noc(-c3ccccc3)c2C2=NCCN2)cc1 | > 100 µM (inactive) | 70.6 µM (inactive) | – | 40.5 µM (inactive) | > 100 µM (inactive) | 39.2 µM (inactive) | > 100 µM (inactive) | 21.1 µM (inactive) | 60.3 µM (inactive)
Cn1cc(NC(=O)c2cc(NC(=O)CCCCCCC(=O)Nc3cc(C(=O)Nc4cc(C(=O)NCCC(=N)N)n(C)c4)n(C)c3)cn2C)cc1C(=O)NCCC(=N)N | 2.82 µM (inactive) | 34.9 µM (inactive) | 3.82 µM (inactive) | > 100 µM (inactive) | 18.9 µM (inactive) | 24.2 µM (inactive) | 5.92 µM (inactive) | 15.5 µM (inactive) | –
CCN(CC)CC1c2ccccc2C(CNc2ccccc2)N1C (centres undefined) | > 100 µM (inactive) | > 100 µM (inactive) | > 100 µM (inactive) | > 100 µM (inactive) | 70.8 µM (inactive) | > 100 µM (inactive) | > 100 µM (inactive) | – | > 100 µM (inactive)
COc1ccc(-c2cc(C(=O)Nc3ccc(C)c(C)c3)nc(NC#N)n2)cc1 | > 100 µM (inactive) | > 100 µM (inactive) | > 100 µM (inactive) | > 100 µM (inactive) | > 100 µM (inactive) | > 100 µM (inactive) | > 100 µM (inactive) | 0.562 µM (active) | –
NC(=O)c1nnn(Cc2cc(Cl)c(C(=O)c3ccc(Cl)cc3)c(Cl)c2)c1N [CARBOXYAMIDOTRIAZOLE] | > 9.1 µM (inactive) | > 9.1 µM (inactive) | > 9.1 µM (inactive) | > 9.1 µM (inactive) | > 9.1 µM (inactive) | > 9.1 µM (inactive) | > 9.1 µM (inactive) | > 9.1 µM (inactive) | 11.7 µM (inactive)
N#CC(NNC(=O)c1ccccc1O)c1cccc(O)c1 (centres undefined) | – | – | 2.32 µM (inactive) | 33.7 µM (inactive) | 4.54 µM (inactive) | 4.89 µM (inactive) | 4.31 µM (inactive) | 35.3 µM (inactive) | –
CN(CCO)c1nc(=O)c2c(n1C1OC(CO)C(O)C(O)C1O)CCCC2 (centres undefined) | > 100 µM (inactive) | > 100 µM (inactive) | > 100 µM (inactive) | > 100 µM (inactive) | > 100 µM (inactive) | > 100 µM (inactive) | > 100 µM (inactive) | > 100 µM (inactive) | –
O.O=C([O-])c1ccccc1Nc1ccccc1C(=O)[O-].[Zn+2] | 17.3 µM (inactive) | 25.1 µM (inactive) | 15.7 µM (inactive) | 94 µM (inactive) | 29.2 µM (inactive) | 37.2 µM (inactive) | 22.1 µM (inactive) | > 52.6 µM (inactive) | –
N#Cc1cccc(-n2[nH]c(=O)ccc2=O)c1 | > 100 µM (inactive) | – | > 100 µM (inactive) | > 100 µM (inactive) | > 100 µM (inactive) | – | > 100 µM (inactive) | – | –
Cc1ccc(C(=O)O)cc1NC(=O)c1cc(/C=C/c2ccccc2)[nH]c(=S)n1 | – | > 100 µM (inactive) | > 57.4 µM (inactive) | > 100 µM (inactive) | > 49.8 µM (inactive) | > 100 µM (inactive) | > 84.5 µM (inactive) | > 100 µM (inactive) | > 100 µM (inactive)
c1cc(-c2cn3ccsc3n2)ccn1 | > 60.5 µM (inactive) | > 100 µM (inactive) | 32.7 µM (inactive) | > 31.6 µM (inactive) | > 100 µM (inactive) | > 100 µM (inactive) | > 100 µM (inactive) | > 100 µM (inactive) | > 100 µM (inactive)
Cc1oc2c(C)c3oc(=O)cc(C)c3cc2c1CNC(=O)[C@@H]1OCCOCCOCCOCCOCCOC1C(=O)O (some centres undefined) | > 100 µM (inactive) | > 10 µM (inactive) | > 100 µM (inactive) | > 100 µM (inactive) | > 100 µM (inactive) | > 100 µM (inactive) | 8.15 µM (inactive) | > 100 µM (inactive) | 36.1 µM (inactive)
O=C1C=CC2(C=C1)CCNC1=C2C(=O)c2ccccc2C1=O | 32.5 µM (inactive) | > 100 µM (inactive) | > 100 µM (inactive) | > 100 µM (inactive) | > 100 µM (inactive) | – | > 100 µM (inactive) | – | > 100 µM (inactive)
O=Cc1c[nH]c2c(=O)[nH]cnc12 | > 100 µM (inactive) | – | – | – | > 100 µM (inactive) | > 100 µM (inactive) | > 100 µM (inactive) | > 100 µM (inactive) | –
